Test results published in patent publication US20180193372A1, “NOVEL BIOMARKER FOR DIAGNOSING RESISTANCE TO ANTICANCER AGENT FOR BILLARY TRACT CANCER AND USE THEREOF” (COWELL BIODIGM CO., LTD., priority 2015, published 2018).
pIC50: −log10 of the molar value.

What was measured:
SNU1196/GR cells [1] = assay: MTT assay of anticancer agent susceptibility after inhibiting TAGLN2 expression; assay type: cell-based, human; details: for change in susceptibility to anticancer agent when TAGLN2 expression was inhibited: TAGLN2 siRNA transfection
Procedure: As siRNA for TAGLN2, sc-106633 produced by Santa Cruz Biotechnology was used, and as control siRNA, sc-37007 (Santa Cruz Biotechnology) was used. An anticancer agent (gemcitabine)-resistant biliary tract cancer cell line SNU1196/GR was transfected with each of control siRNA and TAGLN2 siRNA using a lipofectamine RNAiMAX transfection reagent (Invitrogen), and after 24 hours, was cultured for 72 hours by treating with gemcitabine at various concentrations. The cell line reacted with an MTT solution (Sigma-Aldrich) for 3 hours, and then absorbance at 570 nm was measured by treating with DMSO to determine whether the anticancer agent resistance was overcome through inhibition of TAGLN2 expression in the anticancer agent-resistant biliary tract cancer cell line. The inhibition of the expression by TAGLN2 siRNA was confirmed by western blotting after 72 hours of the transfection.

SNU1196/GR cells [2] = assay: MTT assay confirming resistance to anticancer agent (gemcitabine), resistant line; assay type: cell-based, human; details: SNU1196/GR vs SNU1196/P, 72 hours
Procedure: To create an anticancer agent-resistant biliary tract cancer cell line, a SNU1196 cell line was treated with gemcitabine at various concentrations and then subjected to MTT assay to calculate an IC50 value, and the cells were treated with gemcitabine at a concentration of IC50 for 3 days. After 3 days, when the cells were recovered after being cultured in a drug-free growth medium [10% fetal bovine serum (FBS; Hyclone)-containing RPMI1640 (Invitrogen Gibco)], the cells were recovered by treating with gemcitabine at double the IC50 concentration for 3 days, and an anticancer agent-resistant cell line (named SNU1196/GR) was established by repeating such a cell culturing procedure for 1 year. Whether the resistance to the anticancer agent was acquired was confirmed by MTT assay. Cells derived from biliary tract cancer cell line SNU1196 and anticancer agent-resistant biliary tract cancer cell line SNU1196/GR were attached to 96-well plates at 3×10^3 cells/well, and the following day, the cells were cultured for 72 hours by treating with gemcitabine at various concentrations. […] After 3 hours, the MTT solution was removed, and then absorbance was measured at 570 nm by adding dimethyl sulfoxide (DMSO) at 100 μl/well.

SNU1196/P cells = assay: MTT assay with gemcitabine, parent cell line; assay type: cell-based; details: Homo sapiens, 10 nM stated to be lower than the IC50, read-out: IC50 concentration of parent cell line
Procedure: To create an anticancer agent-resistant biliary tract cancer cell line, a SNU1196 cell line was treated with gemcitabine at various concentrations and then subjected to MTT assay to calculate an IC50 value, and the cells were treated with gemcitabine at a concentration of IC50 for 3 days. After 3 days, when the cells were recovered after being cultured in a drug-free growth medium [10% fetal bovine serum (FBS; Hyclone)-containing RPMI1640 (Invitrogen Gibco)], the cells were recovered by treating with gemcitabine at double the IC50 concentration for 3 days, and an anticancer agent-resistant cell line (named SNU1196/GR) was established by repeating such a cell culturing procedure for 1 year. Whether the resistance to the anticancer agent was acquired was confirmed by MTT assay.
Cells derived from biliary tract cancer cell line SNU1196 and anticancer agent-resistant biliary tract cancer cell line SNU1196/GR were attached to 96-well plates at 3×10^3 cells/well, and the following day, the cells were cultured for 72 hours by treating with gemcitabine at various concentrations. […] After 3 hours, the MTT solution was removed, and then absorbance was measured at 570 nm by adding dimethyl sulfoxide (DMSO) at 100 μl/well.

| Structure (SMILES) | change in susceptibility to anticancer agent when TAGLN2 expression was inhibited (SNU1196/GR cells [1]) | further results |
| --- | --- | --- |
| COc1cc([C@@H]2c3cc4c(cc3[C@@H](O[C@@H]3O[C@@H]5CO[C@@H](C)O[C@H]5[C@H](O)[C@H]3O)[C@H]3COC(=O)[C@H]23)OCO4)cc(OC)c1O [etoposide] | did not cause changes |  |
| CCc1c2c(nc3ccc(OC(=O)N4CCC(N5CCCCC5)CC4)cc13)-c1cc3c(c(=O)n1C2)COC(=O)[C@]3(O)CC [irinotecan] | did not cause changes |  |
| O=c1[nH]cc(F)c(=O)[nH]1 [5-FU, 5-fluorourasil] | increased |  |
| N.N.O=C([O-])C1(C(=O)[O-])CCC1.[Pt+2] [carboplatin] | increased |  |
| Nc1ccn([C@@H]2O[C@H](CO)[C@@H](O)C2(F)F)c(=O)n1 [gemcitabine] |  | IC50 value of SNU1196/GR cells for gemcitabine relative to parent cell line (SNU1196/GR cells [2]): 100 times; pIC50 (SNU1196/P cells): < 8.00; increase of anticancer agent susceptibility (SNU1196/GR cells [1]; co-treatment with TAGLN2 siRNA, gemcitabine 10 nM): 43% |
| C#Cc1cccc(Nc2ncnc3cc(OCCOC)c(OCCOC)cc23)c1 [erlotinib] | did not cause changes |  |
| O=C1[O][Pt]2([NH][C@@H]3CCCC[C@H]3[NH]2)[O]C1=O [oxaliplatin] | increased |  |
| N.N.[Cl][Pt][Cl] [cisplatin] | increased |  |
